According to ChEMBL document CHEMBL3885881, “DrugMatrix”:

Species: Rattus norvegicus
Assay: DrugMatrix - Regimen: Daily Repeat
Type: toxicity, organism-based, Sprague-Dawley
Design: regimen Daily Repeat, gender Male, age 6-8 weeks
Settings: in vivo, po, route oral GAVAGE, vehicle .5 % CMC; for BASOPHIL / EOSINOPHIL / ERYTHROCYTE COUNT / HEMATOCRIT / HEMOGLOBIN / LEUKOCYTE COUNT / LYMPHOCYTE / MEAN CORPUSCULAR HEMOGLOBIN / MEAN CORPUSCULAR HEMOGLOBIN CONCENTRATION / MEAN CORPUSCULAR VOLUME / MONOCYTE / NEUTROPHIL / PLATELET COUNT: tissue Blood; for ALANINE AMINOTRANSFERASE / ALBUMIN / ALKALINE PHOSPHATASE / ASPARTATE AMINOTRANSFERASE / BLOOD UREA NITROGEN / CHLORIDE / CHOLESTEROL / CREATINE PHOSPHOKINASE / CREATININE / GLUCOSE / PHOSPHORUS / POTASSIUM / SODIUM / TOTAL BILIRUBIN / TOTAL PROTEIN: tissue Plasma
[1] = 0 mg/kg, 72 h, dose level Control, time 3 day
[2] = 0 mg/kg, 120 h, dose level Control, time 5 day
[3] = 41 mg/kg, 72 h, dose level High, time 3 day
[4] = 41 mg/kg, 120 h, dose level High, time 5 day
[5] = […], 72 h, dose 4.1 mg/Kg, dose level Low, time 3 day
[6] = […], 120 h, dose 4.1 mg/Kg, dose level Low, time 5 day

In the case of `O=C1c2ccccc2C(=O)C1c1ccccc1` [PHENINDIONE], the BASOPHIL [1] is reported as 0.68%, the EOSINOPHIL [1] is reported as 0.46% and the “ERYTHROCYTE COUNT” value [1] is reported as 7.15 x10E6/uL. For the same molecule, the HEMATOCRIT [1] was 45.44%, the HEMOGLOBIN [1] was 14.1 G/DL and the “LEUKOCYTE COUNT” value [1] was 9.78 x10E3/uL. For the same molecule, the LYMPHOCYTE [1] was 84.44%, the “MEAN CORPUSCULAR HEMOGLOBIN” value [1] was 19.72 pg and the “MEAN CORPUSCULAR HEMOGLOBIN CONCENTRATION” value [1] was 31 G/DL. The “MEAN CORPUSCULAR VOLUME” value [1] was 63.66 fL, the MONOCYTE [1] was 2.14% and the NEUTROPHIL [1] was 11.16%. For the same molecule, the “PLATELET COUNT” value [1] was 1378.2 x10E3/uL, the “ALANINE AMINOTRANSFERASE” value [1] was 42.33 u/L and the ALBUMIN [1] was 3.8 G/DL. For the same molecule, the “ALKALINE PHOSPHATASE” value [1] was 388.17 u/L, the “ASPARTATE AMINOTRANSFERASE” value [1] was 68 u/L and the “BLOOD UREA NITROGEN” value [1] was 16.17 mg/dL. For the same molecule, the CHLORIDE [1] was 96.67 MEQ/L, the CHOLESTEROL [1] was 71 mg/dL and the “CREATINE PHOSPHOKINASE” value [1] was 156.17 u/L. For the same molecule, the CREATININE [1] was 0.57 mg/dL, the GLUCOSE [1] was 193.67 mg/dL and the PHOSPHORUS [1] was 11.43 mg/dL. The POTASSIUM [1] was 7 MEQ/L, the SODIUM [1] was 140.33 MEQ/L and the “TOTAL BILIRUBIN” value [1] was 0.48 mg/dL. The “TOTAL PROTEIN” value [1] was 6.8 G/DL, the BASOPHIL [2] was 1.47% and the EOSINOPHIL [2] was 1%. For the same molecule, the “ERYTHROCYTE COUNT” value [2] was 7.12 x10E6/uL, the HEMATOCRIT [2] was 45.47% and the HEMOGLOBIN [2] was 14.1 G/DL. The “LEUKOCYTE COUNT” value [2] was 11.38 x10E3/uL, the LYMPHOCYTE [2] was 82.57% and the “MEAN CORPUSCULAR HEMOGLOBIN” value [2] was 19.82 pg. The “MEAN CORPUSCULAR HEMOGLOBIN CONCENTRATION” value [2] was 31.02 G/DL, the “MEAN CORPUSCULAR VOLUME” value [2] was 63.88 fL and the MONOCYTE [2] was 2.2%. The NEUTROPHIL [2] was 11.97%, the “PLATELET COUNT” value [2] was 1267 x10E3/uL and the “ALANINE AMINOTRANSFERASE” value [2] was 38 u/L. For the same molecule, the ALBUMIN [2] was 3.72 G/DL, the “ALKALINE PHOSPHATASE” value [2] was 391 u/L and the “ASPARTATE AMINOTRANSFERASE” value [2] was 65.83 u/L. For the same molecule, the “BLOOD UREA NITROGEN” value [2] was 14.17 mg/dL, the CHLORIDE [2] was 107.67 MEQ/L and the CHOLESTEROL [2] was 61 mg/dL. The “CREATINE PHOSPHOKINASE” value [2] was 148.33 u/L, the CREATININE [2] was 0.57 mg/dL and the GLUCOSE [2] was 177.17 mg/dL. The PHOSPHORUS [2] was 12.07 mg/dL, the POTASSIUM [2] was 7.2 MEQ/L and the SODIUM [2] was 151.5 MEQ/L. The “TOTAL BILIRUBIN” value [2] was 0.58 mg/dL, the “TOTAL PROTEIN” value [2] was 6.72 G/DL and the BASOPHIL [3] was 0.3%. For the same molecule, the EOSINOPHIL [3] was 0.33%, the “ERYTHROCYTE COUNT” value [3] was 7.21 x10E6/uL and the HEMATOCRIT [3] was 45.77%. For the same molecule, the HEMOGLOBIN [3] was 14.17 G/DL, the “LEUKOCYTE COUNT” value [3] was 11.97 x10E3/uL and the LYMPHOCYTE [3] was 84.4%. For the same molecule, the “MEAN CORPUSCULAR HEMOGLOBIN” value [3] was 19.77 pg, the “MEAN CORPUSCULAR HEMOGLOBIN CONCENTRATION” value [3] was 30.97 G/DL and the “MEAN CORPUSCULAR VOLUME” value [3] was 63.73 fL. The MONOCYTE [3] was 2.13%, the NEUTROPHIL [3] was 11.97% and the “PLATELET COUNT” value [3] was 1382.67 x10E3/uL. The “ALANINE AMINOTRANSFERASE” value [3] was 31.33 u/L, the ALBUMIN [3] was 3.67 G/DL and the “ALKALINE PHOSPHATASE” value [3] was 276 u/L. For the same molecule, the “ASPARTATE AMINOTRANSFERASE” value [3] was 57 u/L, the “BLOOD UREA NITROGEN” value [3] was 11 mg/dL and the CHLORIDE [3] was 96 MEQ/L. The CHOLESTEROL [3] was 75.33 mg/dL, the “CREATINE PHOSPHOKINASE” value [3] was 160 u/L and the CREATININE [3] was 0.47 mg/dL. For the same molecule, the GLUCOSE [3] was 189.67 mg/dL, the PHOSPHORUS [3] was 13.23 mg/dL and the POTASSIUM [3] was 6.77 MEQ/L. The SODIUM [3] was 140.67 MEQ/L, the “TOTAL BILIRUBIN” value [3] was 0.27 mg/dL and the “TOTAL PROTEIN” value [3] was 6.63 G/DL. The BASOPHIL [4] was 1.47%, the EOSINOPHIL [4] was 0.3% and the “ERYTHROCYTE COUNT” value [4] was 7.12 x10E6/uL. For the same molecule, the HEMATOCRIT [4] was 45.4%, the HEMOGLOBIN [4] was 14.17 G/DL and the “LEUKOCYTE COUNT” value [4] was 14.99 x10E3/uL. For the same molecule, the LYMPHOCYTE [4] was 85.6%, the “MEAN CORPUSCULAR HEMOGLOBIN” value [4] was 19.93 pg and the “MEAN CORPUSCULAR HEMOGLOBIN CONCENTRATION” value [4] was 31.23 G/DL. For the same molecule, the “MEAN CORPUSCULAR VOLUME” value [4] was 63.83 fL, the MONOCYTE [4] was 2.43% and the NEUTROPHIL [4] was 9.5%. The “PLATELET COUNT” value [4] was 1502.67 x10E3/uL, the “ALANINE AMINOTRANSFERASE” value [4] was 34 u/L and the ALBUMIN [4] was 3.53 G/DL. For the same molecule, the “ALKALINE PHOSPHATASE” value [4] was 292 u/L, the “ASPARTATE AMINOTRANSFERASE” value [4] was 57 u/L and the “BLOOD UREA NITROGEN” value [4] was 10.67 mg/dL. For the same molecule, the CHLORIDE [4] was 103.67 MEQ/L, the CHOLESTEROL [4] was 83.33 mg/dL and the “CREATINE PHOSPHOKINASE” value [4] was 132.67 u/L. It also gave a CREATININE [4] of 0.47 mg/dL, a GLUCOSE [4] of 192.67 mg/dL and a PHOSPHORUS [4] of 12.77 mg/dL. For the same molecule, the POTASSIUM [4] was 7.37 MEQ/L, the SODIUM [4] was 150 MEQ/L and the “TOTAL BILIRUBIN” value [4] was 0.37 mg/dL. For the same molecule, the “TOTAL PROTEIN” value [4] was 6.43 G/DL, the BASOPHIL [5] was 0.47% and the EOSINOPHIL [5] was 0.27%. For the same molecule, the “ERYTHROCYTE COUNT” value [5] was 7.09 x10E6/uL, the HEMATOCRIT [5] was 45.17% and the HEMOGLOBIN [5] was 13.97 G/DL. For the same molecule, the “LEUKOCYTE COUNT” value [5] was 12.61 x10E3/uL, the LYMPHOCYTE [5] was 82.37% and the “MEAN CORPUSCULAR HEMOGLOBIN” value [5] was 19.7 pg. For the same molecule, the “MEAN CORPUSCULAR HEMOGLOBIN CONCENTRATION” value [5] was 30.9 G/DL, the “MEAN CORPUSCULAR VOLUME” value [5] was 63.73 fL and the MONOCYTE [5] was 2.5%. The NEUTROPHIL [5] was 13.5%, the “PLATELET COUNT” value [5] was 1416.33 x10E3/uL and the “ALANINE AMINOTRANSFERASE” value [5] was 33 u/L. For the same molecule, the ALBUMIN [5] was 3.63 G/DL, the “ALKALINE PHOSPHATASE” value [5] was 396.33 u/L and the “ASPARTATE AMINOTRANSFERASE” value [5] was 56 u/L. For the same molecule, the “BLOOD UREA NITROGEN” value [5] was 11.33 mg/dL, the CHLORIDE [5] was 96 MEQ/L and the CHOLESTEROL [5] was 74.67 mg/dL. For the same molecule, the “CREATINE PHOSPHOKINASE” value [5] was 136.67 u/L, the CREATININE [5] was 0.47 mg/dL and the GLUCOSE [5] was 209.33 mg/dL. The PHOSPHORUS [5] was 12.83 mg/dL, the POTASSIUM [5] was 6.4 MEQ/L and the SODIUM [5] was 140.33 MEQ/L. For the same molecule, the “TOTAL BILIRUBIN” value [5] was 0.27 mg/dL, the “TOTAL PROTEIN” value [5] was 6.5 G/DL and the BASOPHIL [6] was 1.43%. For the same molecule, the EOSINOPHIL [6] was 0.2%, the “ERYTHROCYTE COUNT” value [6] was 6.9 x10E6/uL and the HEMATOCRIT [6] was 44.03%. The HEMOGLOBIN [6] was 13.87 G/DL, the “LEUKOCYTE COUNT” value [6] was 10.25 x10E3/uL and the LYMPHOCYTE [6] was 84.9%. The “MEAN CORPUSCULAR HEMOGLOBIN” value [6] was 20.03 pg, the “MEAN CORPUSCULAR HEMOGLOBIN CONCENTRATION” value [6] was 31.4 G/DL and the “MEAN CORPUSCULAR VOLUME” value [6] was 63.83 fL. The MONOCYTE [6] was 2.17%, the NEUTROPHIL [6] was 10.6% and the “PLATELET COUNT” value [6] was 1408.33 x10E3/uL. For the same molecule, the “ALANINE AMINOTRANSFERASE” value [6] was 37.33 u/L, the ALBUMIN [6] was 3.6 G/DL and the “ALKALINE PHOSPHATASE” value [6] was 340.67 u/L. For the same molecule, the “ASPARTATE AMINOTRANSFERASE” value [6] was 58 u/L, the “BLOOD UREA NITROGEN” value [6] was 9 mg/dL and the CHLORIDE [6] was 103.33 MEQ/L. The CHOLESTEROL [6] was 58 mg/dL, the “CREATINE PHOSPHOKINASE” value [6] was 132.33 u/L and the CREATININE [6] was 0.43 mg/dL. The GLUCOSE [6] was 190.33 mg/dL, the PHOSPHORUS [6] was 13.17 mg/dL and the POTASSIUM [6] was 7.2 MEQ/L. The SODIUM [6] was 150.33 MEQ/L and the “TOTAL BILIRUBIN” value [6] was 0.27 mg/dL.
